From patent US20250289827A1, “MORPHIC FORMS OF A MUTANT BRAF DEGRADER AND METHODS OF MANUFACTURE THEREOF” (C4 THERAPEUTICS, INC., priority 2022, published 2025)
In brackets after ≈: the same amount, converted by molar mass.

Columns and labels:
[1] = test system: HT-29 human colorectal cancer cell derived xenografts (CDX); test: Efficacy in HT-29 CDX model of colorectal cancer; type: in vivo, BALB/c nude mice
Excerpt: The endpoint for each individual mouse was reached when the mouse weight decreased by 20%.

BCS / DCS classification = conditions: initial studies
Excerpt: Initial studies indicate Compound 1 is a Biopharmaceutics Classification System (BCS) Class II and a Developability Classification System (DCS) Class IIb molecule.

BRAF^V600E = BRAF^V600E (Homo sapiens, UniProt P15056, V600E); test: BRAF V600E degradation in A375 cells; type: cell-based; conditions: 24 hr
Sequence of BRAF^V600E (P15056 whole entry V600E): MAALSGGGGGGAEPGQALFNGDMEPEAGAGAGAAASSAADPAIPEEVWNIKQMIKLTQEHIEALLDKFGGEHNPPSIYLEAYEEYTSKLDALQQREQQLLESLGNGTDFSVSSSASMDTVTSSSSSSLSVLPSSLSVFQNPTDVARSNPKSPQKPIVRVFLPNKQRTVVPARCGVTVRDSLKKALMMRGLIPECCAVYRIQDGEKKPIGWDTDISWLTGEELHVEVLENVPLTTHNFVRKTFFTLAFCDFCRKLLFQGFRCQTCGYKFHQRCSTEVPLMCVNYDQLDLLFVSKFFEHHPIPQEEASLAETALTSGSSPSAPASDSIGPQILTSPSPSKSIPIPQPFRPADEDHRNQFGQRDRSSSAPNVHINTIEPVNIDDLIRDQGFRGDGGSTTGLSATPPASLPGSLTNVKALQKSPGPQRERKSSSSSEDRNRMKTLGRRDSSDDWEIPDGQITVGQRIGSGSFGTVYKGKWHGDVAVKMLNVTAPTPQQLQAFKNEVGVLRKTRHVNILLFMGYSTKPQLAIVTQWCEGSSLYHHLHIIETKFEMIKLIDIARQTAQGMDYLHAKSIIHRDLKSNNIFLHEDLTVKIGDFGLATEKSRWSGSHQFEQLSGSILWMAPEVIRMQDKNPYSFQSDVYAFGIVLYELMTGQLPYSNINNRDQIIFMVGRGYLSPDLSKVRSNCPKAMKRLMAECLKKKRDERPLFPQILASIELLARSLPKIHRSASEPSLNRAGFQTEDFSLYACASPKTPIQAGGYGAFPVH

[2] = Salt screening by re-slurry; type: physicochemical
[3] = Salt screening by slurry equilibration; type: physicochemical
Description: About 30 mg of Compound 1 Form A and 0.5 or 1 equivalent of base were added into a solvent in a 2 mL glass vial. […] Obtained mixtures were stirred at 25° C. for at least 48 hours.
Obtained suspensions were filtered through a 0.45 μm nylon membrane filter by centrifugation at 14,000 rpm. After being dried at 25° C. under vacuum for 2 h, solid parts were analyzed by XRPD.

[4] = Salt screening by anti-solvent addition; type: physicochemical; conditions: Choline; MeOH/0.2 mL, anti-solvent MTBE/0.3 mL
[5] = Crystallization by vapor diffusion; type: physicochemical
Description: About 50 mg of Compound 1 Form A was dissolved in the minimal amount of selected solvents at ambient temperature (about 20-25° C.). Obtained solutions were filtered through a 0.45 μm syringe membrane filter. […] Then these 8 mL lid less vials were placed to 40 mL glass vials. To the 40 mL vials were added anti-solvents. Then these 40 mL vials were capped tightly and placed at ambient condition for up to 21 days. Precipitates were collected by centrifugation filtration through a 0.45 μm nylon membrane filter at 14,000 rpm. Solid parts (wet cakes) were investigated by XRPD.

[6] = Crystallization by addition of anti-solvent; type: physicochemical
Description: About 50 mg of Compound 1 Form A was dissolved in the minimal amount of selected good solvents at ambient temperature (about 20-25° C.). Obtained solutions were filtered through a 0.45 μm syringe membrane filter. […] Precipitates were collected by centrifugation filtration through a 0.45 μm nylon membrane filter at 14,000 rpm. Solid parts (wet cakes) were investigated by XRPD.

[7] = Bulk stability of Compound 1 Form B (1 week stress); type: physicochemical
[8] = Wet granulation simulation experiments; type: physicochemical
Description: Water or ethanol was added drop wise to about 20 mg of Compound 1 Form B until the sample was wetted sufficiently. Wet sample was ground gently with in a mortar and a pestle. Post granulation sample was dried under ambient condition for 10 min. Potential form change and degree of crystallinity were evaluated by XRPD.

[9] = Solubility in aqueous pH buffers and bio-relevant fluids at 37° C.; type: physicochemical; conditions: for Solubility 2 h / Solubility 24 h: LOQ: 1.5 μg/mL; for solubility at 2 h / solubility at 24 h: thermodynamic from solid
Description: Solubility of the Form B and sodium salt Form F was measured in 7 aqueous pH buffers and bio-relevant fluids including pH 1.2 HCl solution (0.2N), pH 4.5 acetate buffer (50 mM), pH 6.8 phosphate buffer (50 mM), pH 2.0 SGF, pH 6.5 FaSSIF-v1, pH 5.0 FeSSIF-v1 and water at 37° C. for 2 h and 24 h, respectively.
Accurate 20 mg of the Form B was weighed into a 20 mL glass vial. Then, 10 mL of solubility medium was added. The sodium salt Form F amount used was equivalent to 20 mg anhydrous form. Obtained suspensions were stirred at 37° C. at 400 rpm and sampled at 2 hours and at 24 hours, respectively. The samples were centrifuged at 37° C. at 4,000 rpm for 4 min. Supernatants were analyzed by HPLC and pH meter for solubility and pH value, respectively. Residual solids (wet cakes) from the 24 hours samples were also characterized by XRPD to determine physical form.

[10] = Acetone (3) / anti-solvent Heptane (2) mL
[11] = Solid state, photo (visible light, 1.2 million lux-hrs)
[12] = pH 4.5 acetate buffer (50 mM), 37° C.
[13] = pH 6.8 phosphate buffer (50 mM), 37° C.
[14] = simulated gastric fluid, SGF, pH 2.0, 37° C.
[15] = simulated gastric fluid, pH 1.2 HCl solution (0.2N), 37° C.

CCN(C)S(=O)(=O)Nc1ccc(F)c(Oc2ccc3ncn([C@H]4COC5(CCN(C(=O)CC6(O)CCN(c7cc8c(cc7F)c(N7CCC(=O)NC7=O)nn8C)CC6)CC5)C4)c(=O)c3c2)c1C#N [Compound 1, (3R)-3-[6-[2-cyano-3-[[ethyl(methyl)sulfamoyl]amino]-6-fluorophenoxy]-4-oxoquinazolin-3-yl]-8-[2-[1-[3-(2,4-dioxo-1,3-diazinan-1-yl)-5-fluoro-1-methylindazol-6-yl]-4-hydroxypiperidin-4-yl]acetyl]-1-oxa-8-azaspiro[4.5]decane]
Tumor response at end of study ([1]; 10 mg/kg PO BID plus cetuximab 11 mg/kg IP Q3D): tumor regression | Tumor response at end of study ([1]; 10 mg/kg PO BID, without cetuximab): tumor regression | Biopharmaceutics Classification System (BCS) class (BCS / DCS classification): Class II | Developability Classification System (DCS) class (BCS / DCS classification): Class IIb | BRAF protein degraded (BRAF^V600E): 74% | DC50 (BRAF^V600E): 14 nM

CCN(C)S(=O)(=O)Nc1ccc(F)c(Oc2ccc3ncn([C@H]4COC5(CCN(C(=O)CC6(O)CCN(c7cc8c(cc7F)c(N7CCC(=O)NC7=O)nn8C)CC6)CC5)C4)c(=O)c3c2)c1C#N [Compound 1 Form A]
Re-slurry result ([2]; Ca(OH)2, Ethyl Acetate): Almost amorphous | Re-slurry result ([2]; Choline, Ethyl Acetate): Sticky material | Re-slurry result ([2]; Choline, MTBE): Sticky material | Re-slurry result ([2]; Choline, Toluene): Sticky material | Re-slurry result ([2]; Methylglucamine, Ethyl Acetate): Form A | Slurry equilibration result (XRPD) ([3]; Ca(OH)2 (0.5 equiv.), Acetone, 5% water): Sticky material | Slurry equilibration result (XRPD) ([3]; Ca(OH)2 (0.5 equiv.), Acetonitrile, 5% water): Sticky material | Slurry equilibration result (XRPD) ([3]; Choline (1 equiv.), Acetone): Sticky material | Slurry equilibration result (XRPD) ([3]; Choline (1 equiv.), Acetonitrile): Sticky material | Slurry equilibration result (XRPD) ([3]; Choline (1 equiv.), Methanol): Clear solution | Slurry equilibration result (XRPD) ([3]; Erbumine (1 equiv.), Methanol): Few solids | Slurry equilibration result (XRPD) ([3]; Free form only, Acetone): Form B | Slurry equilibration result (XRPD) ([3]; Free form only, Acetonitrile): Form B | Slurry equilibration result (XRPD) ([3]; Methylglucamine (1 equiv.), Methanol): Sticky material | Slurry equilibration result (XRPD) ([3]; Mg(OH)2 (0.5 equiv.), Acetone, 5% water): Few solids | Slurry equilibration result (XRPD) ([3]; Mg(OH)2 (0.5 equiv.), Acetonitrile, 5% water): Form B | Slurry equilibration result (XRPD) ([3]; NH3 (1 equiv.), Acetone): Hazy suspension | Slurry equilibration result (XRPD) ([3]; NH3 (1 equiv.), Acetonitrile): Form I* | Slurry equilibration result (XRPD) ([3]; TRIS (1 equiv.), Methanol): Few solids | Notes [4]: Sticky material | Results ([5]; 2-MeTHF (8.0) / MTBE (32.0) mL): Few solids | Results ([5]; Acetone (2.5) / MTBE (10.0) mL): Oil material | Results ([5]; Acetonitrile (3.0) / MTBE (12.0) mL): Oil material | Results ([5]; DMSO (0.2) / Ethanol (0.8) mL): Oil material | Results (After 2 hours) ([6]; 1,4-Dioxane (0.1) / anti-solvent Water (0.2) mL): Sticky material | Results (After 2 hours) [6, 10]: Low crystallinity | XRPD [6, 10]: Form A | Results (After 2 hours) ([6]; DCM (0.2) / anti-solvent Heptane (0.2) mL): Sticky material | Results (After 2 hours) ([6]; THF (0.2) / anti-solvent Water (0.2) mL): Oil material

CCN(C)S(=O)(=O)Nc1ccc(F)c(Oc2ccc3ncn([C@H]4COC5(CCN(C(=O)CC6(O)CCN(c7cc8c(cc7F)c(N7CCC(=O)NC7=O)nn8C)CC6)CC5)C4)c(=O)c3c2)c1C#N [Compound 1 Form B]
Bulk (XRPD) crystallinity [7, 11]: Slight decrease in crystallinity | Color [7, 11]: No change of color | Purity, Bulk (HPLC) [7, 11]: 96.9% | Purity, Control (HPLC) ([7]; photo test, control sample): 99.4% | XRPD after wet granulation ([8]; granulation solvent Ethanol): Form B; no crystallinity decrease. | XRPD after wet granulation ([8]; granulation solvent Water): Form B; no crystallinity decrease. | Crystallinity change after wet granulation ([8]; in the presence of water or ethanol): no changes in crystallinity | pH of supernatant 24 h ([9]; FaSSIF-v1, pH 6.5, 37° C.): pH = 6.5 | Solubility 2 h ([9]; FaSSIF-v1, pH 6.5, 37° C.): <LOQ | Solubility 24 h ([9]; FaSSIF-v1, pH 6.5, 37° C.): <LOQ | pH of supernatant 24 h ([9]; FeSSIF-v1, pH 5.0, 37° C.): (pH = 5.0) | pH of supernatant 24 h ([9]; SGF, pH 2.0, 37° C.): (pH = 2.1) | pH of supernatant 24 h ([9]; Water, 37° C.): (pH = 7.0) | Solubility 2 h ([9]; Water, 37° C.): <LOQ | pH range of morphic form stability in aqueous media ([9]; aqueous media): 1.2 to 7.0 | pH dependence of solubility ([9]; aqueous media, 37° C.): pH dependent solubility | pH of supernatant 24 h ([9]; pH 1.2 HCl solution (0.2N), 37° C.): (pH = 0.9) | pH of supernatant 24 h [9, 12]: (pH = 4.5) | Solubility 2 h [9, 12]: <LOQ | Solubility 24 h [9, 12]: <LOQ | pH of supernatant 24 h [9, 13]: (pH = 6.8) | Solubility 2 h [9, 13]: <LOQ | Solubility 24 h [9, 13]: <LOQ | Form change after solubility test ([9]; residual solids, 24 hours, XRPD): no form change | solubility at 2 h [9, 14]: 3.8 µg/mL (≈ 3.97 µM) | solubility at 24 h [9, 14]: 5.2 µg/mL (≈ 5.43 µM) | solubility at 2 h [9, 15]: 11.7 µg/mL (≈ 12.2 µM) | solubility at 24 h [9, 15]: 28 µg/mL (≈ 29.2 µM) | solubility at 2 h ([9]; FeSSIF-v1, pH 5.0, 37° C.): 4.8 µg/mL (≈ 5.01 µM) | solubility at 24 h ([9]; FeSSIF-v1, pH 5.0, 37° C.): 6.7 µg/mL (≈ 6.99 µM) | solubility at 24 h ([9]; Water, 37° C.): 4.6 µg/mL (≈ 4.8 µM)
